Literature values in patent publication US20180346745A1, “WATER-BASED INK COMPOSITION FOR INK JET RECORDING AND COLORING MATERIAL LIQUID” (Seiko Epson Corporation, priority 2017, published 2018).

details: value defined by OECD Test Guideline 107

Compound | log P (water-octanol partition coefficient)
CCCOCC(C)O (centres unmarked) [propylene glycol monopropyl ether] | 0.61
CCCCOCCOCCO [butyl diglycol] | 0.56

Results, then the compound that gave them:

log P (water-octanol partition coefficient) | Compound
1.14 | CCCCOCC(C)O (centres unmarked) [propylene glycol monobutyl ether]
0.83 | CCCCCOCC(O)CO (centres unmarked) [3-pentyloxy-1,2-propanediol]
1.32 | CCCCCCC(O)CO (centres unmarked) [1,2-octane diol]
